For orientation: IC50 means the concentration that inhibits the measured activity by half. A high value points to a need for much substance. In general, ED50 refers to the dose that gives a 50% effect, or the effect in half of the subjects. Low readings indicate an effect at a small dose, high ones a need for a large dose.

Bounds are passed on as bounds.

One data set has as its target T1, D2 receptors (Rattus norvegicus, UniProt P61169).
T1 construct: membrane corresponding to 20 mg of rat striatum; from tissue; host or cells: rat striatum membrane
The data set can be described thus: Specific binding to D2 receptors ([3H]spiperone, rat striatum membrane). The settings on record: for IC50: [3H]spiperone 2 nM, rat striatum membrane, 20 min, 35° C., pH 7.4; for D2/5HT2 ratio: ratio of IC50 values, D2 over 5HT2. How it is done:
(§1) Specific binding to D2 and 5HT2 receptors was tested as follows:
D2 receptors: A 2-nM solution of radioactive spiperone ([^3 H]spiperone), which acts as a specific ligand, was incubated with the membrane corresponding to 20 mg of rat striatum for 20 min at 35° C. buffered at pH 7.4 with Tris.HCl. The non-specific binding was then determined by addition of a micromolar concentration of unlabelled spiperone. […] After the incubation was completed, the sample was filtered through a glass fiber filter and then washed three times with Tris.HCl buffer. The amount of receptor-bound radioactivity was retained on the membrane and determined by liquid scintillation counting.

Data set [1] has as its target T2, 5HT2 receptors (Rattus norvegicus, UniProt P14842).
T2 construct: membrane corresponding to 1 mg of rat cortex; from tissue; host or cells: rat cortex membrane
In words: Specific binding to 5HT2 receptors ([3H]ketanserin, rat cortex membrane). Conditions: [3H]ketanserin 0.5 nM, 30 min, 35° C., pH 7.4. As to the method:
as §1
5HT2 receptors: A 0.5 nM solution of radioactive ketanserin ([^3 H]ketanserin), which acts as a specific ligand, was incubated with the membrane corresponding to 1 mg of rat cortex for 30 min at 35° C. buffered at pH 7.4 with Tris.HCl. Non-specific binding was then determined by addition of 5 micromolar concentration of unlabelled mianserin. IC50 (inhibitory concentration 50%) was calculated from the inhibition rate of the specific binding obtained by addition of eleven different concentrations of the compounds to be tested. After the incubation was completed, the sample was filtered through a glass fiber filter and then washed three times with Tris.HCl buffer. The amount of receptor-bound radioactivity was retained on the membrane and determined by liquid scintillation counting.

Data set [2] deals with apomorphine-induced climbing behaviour. In words: Inhibition of apomorphine-induced climbing behaviour. The class given is in vivo, Male Swiss mice. The settings on record: Mus musculus, 1 h; oral, mice, apomorphine 1 mg/kg s.c. at 60 min. How it is done:
(§2) The inhibiton test of apomorphine-induced climbing behaviour and the inhibition test of DOI-induced head twitches and scratches are hereinafter described.
Inhibition of aoomorphine-induced climbing behaviour
Male Swiss mice weighing 22-24 g were used. One week prior to experiment, animals were kept in our facilities at a temperature of 20°-22° C. and 12/12 h light-dark cycle, and had free access to food and water. Two hours prior to experiment, the animals were placed in individual cages without access to food.
Animals were administered orally with test drug or 0.25% agar at time 0. After 60 minutes, apomorphine was subcutaneously injected at a dose of 1 mg/kg, and after further 70 minutes the animal's behaviour was assessed. Two additional assessments were performed at 10-min intervals. For assessment, each animal was placed on the bottom of a small upright box (11×7.5×4.5 cm). The walls of the box were made of translucent methacrylate except one of the lateral surfaces (7.5 cm wide) which was a 3-mm wire mesh. The position of the animal was scored for 2 minutes according to the following criteria: 0=four paws on the floor; 1=three paws on the floor; 2=two paws on the floor; 3=one paw on the floor; and 4=four paws holding the wire mesh. If an animal keeps several positions within the 2-min observation, the seconds elapsed in each position will be recorded. Finally, mean scoring was calculated.

For data set [3], the target named is T3, 5HT2 receptors (Mus musculus, UniProt P35363).
T3 construct: Male N.M.R.I. mice weighing 22-26 g were used; from tissue; host or cells: living male N.M.R.I. mice (whole animal, endogenous receptor)
In words: Inhibition of DOI-induced head twitches and scratches. It counts as in vivo, Male N.M.R.I. mice. The settings on record: p.o., mice, DOI 3 mg/kg i.p. at 60 min. How it is done: as §2
Inhibition of DOI-induced head twitches and scratches
Male N.M.R.I. mice weighing 22-26 g were used. After the animals were weighed, they were individually placed in transparent cages two hours prior to experiment. Test compound was given p.o. at time 0. The administration interval time between mice was 5 min. At time 60 min DOI at the dose of 3 mg/kg i.p. dissolved in saline was administered. The number of head twitches and scratches were assessed as well as the presence or absence of escape attempts.

Data set [4] is described as follows: Catalepsy by oral route in Sprague-Dawley rats. It counts as in vivo. The settings on record: for ED50: rat, in vivo, oral, Sprague-Dawley rats, 50% of treated animals showed catalepsy; for R (Catalepsy/Climbing): ratio of ED50 values.

T1 sequence (P61169 whole entry): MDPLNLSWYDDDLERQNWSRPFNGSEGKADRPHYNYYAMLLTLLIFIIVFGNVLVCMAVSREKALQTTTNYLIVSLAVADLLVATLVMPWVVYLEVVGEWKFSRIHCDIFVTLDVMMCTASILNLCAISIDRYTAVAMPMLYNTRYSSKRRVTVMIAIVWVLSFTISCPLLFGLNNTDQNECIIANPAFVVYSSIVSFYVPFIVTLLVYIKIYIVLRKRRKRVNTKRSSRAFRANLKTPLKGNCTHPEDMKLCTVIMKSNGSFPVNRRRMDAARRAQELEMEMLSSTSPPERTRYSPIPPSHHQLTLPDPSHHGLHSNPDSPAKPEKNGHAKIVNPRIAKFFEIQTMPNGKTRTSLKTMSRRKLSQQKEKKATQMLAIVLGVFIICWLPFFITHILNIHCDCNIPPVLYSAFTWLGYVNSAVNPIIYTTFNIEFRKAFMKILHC
T2 sequence (P14842 whole entry): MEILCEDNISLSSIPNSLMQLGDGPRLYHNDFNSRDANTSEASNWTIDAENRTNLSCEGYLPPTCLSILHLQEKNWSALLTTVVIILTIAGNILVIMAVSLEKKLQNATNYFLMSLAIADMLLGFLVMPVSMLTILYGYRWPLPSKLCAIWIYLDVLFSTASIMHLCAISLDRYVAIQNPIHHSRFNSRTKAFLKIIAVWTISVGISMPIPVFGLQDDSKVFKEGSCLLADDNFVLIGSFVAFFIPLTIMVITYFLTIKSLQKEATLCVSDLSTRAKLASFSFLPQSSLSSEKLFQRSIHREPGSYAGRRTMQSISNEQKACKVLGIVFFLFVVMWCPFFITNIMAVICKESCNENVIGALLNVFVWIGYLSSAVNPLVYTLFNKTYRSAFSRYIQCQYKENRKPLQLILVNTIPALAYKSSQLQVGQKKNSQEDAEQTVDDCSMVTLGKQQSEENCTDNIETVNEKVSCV
T3 sequence (P35363 whole entry): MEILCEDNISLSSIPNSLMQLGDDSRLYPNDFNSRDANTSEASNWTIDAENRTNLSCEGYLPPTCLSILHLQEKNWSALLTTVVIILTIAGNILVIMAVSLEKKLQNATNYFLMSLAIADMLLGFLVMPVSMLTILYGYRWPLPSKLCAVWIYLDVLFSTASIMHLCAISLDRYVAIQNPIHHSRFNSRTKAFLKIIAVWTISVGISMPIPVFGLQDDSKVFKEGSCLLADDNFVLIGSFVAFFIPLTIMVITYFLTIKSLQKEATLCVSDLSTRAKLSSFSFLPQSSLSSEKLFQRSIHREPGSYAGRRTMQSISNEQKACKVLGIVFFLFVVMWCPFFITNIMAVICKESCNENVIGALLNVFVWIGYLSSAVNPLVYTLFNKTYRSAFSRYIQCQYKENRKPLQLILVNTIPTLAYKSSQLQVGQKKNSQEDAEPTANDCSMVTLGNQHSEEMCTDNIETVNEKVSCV

Take `Cc1nc2scc(-c3ccc(F)cc3)n2c(=O)c1CCN1CCC(c2noc3cc(F)ccc23)CC1` [Example 14, 6-[2-[4-(6-fluoro-1,2-benzisoxazol-3-yl)-1-piperidinyl]ethyl]-3-(4-fluorophenyl)-7-methyl-5H-thiazolo[3,2-a]pyrimidin-5-one]: at D2 receptors, the IC50 is 0.0197 µM and the D2/5HT2 ratio stood at 6.2. The compound also displayed an IC50 at 5HT2 receptors [1] of 0.00318 µM. The compound further returned an ED50 in data set [2] of 2.9 mg/kg. Further, the “ED50 DOI” value on 5HT2 receptors [3] turned out to be 0.28 mg/kg. Moreover, in data set [4], the ED50 stood at 9.3 mg/kg and the “R (Catalepsy/Climbing)” value was 3.2.
Consider `Cc1nc2scc(-c3ccccc3)n2c(=O)c1CCN1CCC(c2noc3cc(F)ccc23)CC1` [Example 15, 6-[2-[4-(6-fluoro-1,2-benzisoxazol-3-yl)-1-piperidinyl]ethyl]-3-phenyl-7-methyl-5H-thiazolo[3,2-a]pyrimidin-5-one], for which, on D2 receptors, the IC50 was 0.0441 µM and the D2/5HT2 ratio amounted to 11.2. Moreover, the IC50 at 5HT2 receptors [1] came to 0.00394 µM. Besides, in data set [2], it took a dose of 14.7 mg/kg to reach the 50% effect level (ED50). Moreover, on 5HT2 receptors [3], the “ED50 DOI” value amounted to 0.58 mg/kg. In data set [4], the ED50 was 16 mg/kg and the “R (Catalepsy/Climbing)” value stood at 1.1.
Turning to `COc1ccc(-c2csc3nc(C)c(CCN4CCC(c5noc6cc(F)ccc56)CC4)c(=O)n23)cc1` [Example 16, 6-[2-[4-(6-fluoro-1,2-benzisoxazol-3-yl)-1-piperidinyl]ethyl]-3-(4-methoxyphenyl)-7-methyl-5H-thiazolo[3,2-a]pyrimidin-5-one], on D2 receptors, the IC50 was determined as 0.0421 µM and the D2/5HT2 ratio was 5.1. This compound also had an IC50 on 5HT2 receptors [1] of 0.00832 µM. The compound also had an ED50 in data set [2] of 7.4 mg/kg. On 5HT2 receptors [3], the “ED50 DOI” value was 0.84 mg/kg. Moreover, in data set [4], the 50% effect level (ED50) was put at a dose of 30 mg/kg and the “R (Catalepsy/Climbing)” value was found to be 4.1.
For the compound `Cc1ccc(-c2csc3nc(C)c(CCN4CCC(c5noc6cc(F)ccc56)CC4)c(=O)n23)cc1` [Example 17, 6-[2-[4-(6-fluoro-1,2-benzisoxazol-3-yl)-1-piperidinyl]ethyl]-3-(4-methylphenyl)-7-methyl-5H-thiazolo[3,2-a]pyrimidin-5-one], the results for the IC50 at D2 receptors and at 5HT2 receptors [1] were 0.0364 µM and 0.0149 µM, respectively. The D2/5HT2 ratio on D2 receptors is on record as 2.4. The ED50 is 3.9 mg/kg in data set [2] and 22.5 mg/kg in data set [4]. Moreover, at 5HT2 receptors [3], the “ED50 DOI” value is reported as 0.57 mg/kg. The “R (Catalepsy/Climbing)” value in data set [4] is on record as 5.8.
With `Cc1nc2scc(-c3ccc4c(c3)OCO4)n2c(=O)c1CCN1CCC(c2noc3cc(F)ccc23)CC1` [Example 18], the IC50 on D2 receptors stood at 0.0173 µM; on 5HT2 receptors [1], 0.00763 µM. Moreover, at D2 receptors, the D2/5HT2 ratio came to 2.3. Further, the ED50 in data set [2] came to 7.7 mg/kg; in data set [4], 20 mg/kg. Besides, the “ED50 DOI” value at 5HT2 receptors [3] came to 0.80 mg/kg. For the same compound, the “R (Catalepsy/Climbing)” value in data set [4] worked out at 2.6.
Take `Cc1nc2scc(-c3ccc(Cl)cc3)n2c(=O)c1CCN1CCC(c2noc3cc(F)ccc23)CC1` [Example 19]: the IC50 on D2 receptors stood at 0.0436 µM; at 5HT2 receptors [1], 0.0111 µM. Moreover, the D2/5HT2 ratio at D2 receptors stood at 3.9. The ED50 is 3.5 mg/kg in data set [2] and 9.5 mg/kg in data set [4]. Moreover, the “ED50 DOI” value on 5HT2 receptors [3] is 0.82 mg/kg. In addition, the “R (Catalepsy/Climbing)” value in data set [4] amounted to 2.7.
Turning to `Cc1nc2scc(-c3ccc(Cl)c(Cl)c3)n2c(=O)c1CCN1CCC(c2noc3cc(F)ccc23)CC1` [Example 20], at D2 receptors, the IC50 came to 0.0194 µM and the D2/5HT2 ratio is reported as 0.6. Besides, the IC50 on 5HT2 receptors [1] came to 0.0352 µM.
In the case of `Cc1nc2scc(-c3cccc(Cl)c3)n2c(=O)c1CCN1CCC(c2noc3cc(F)ccc23)CC1` [Example 21], the IC50 at D2 receptors is 0.0166 µM; at 5HT2 receptors [1], 0.0245 µM. The D2/5HT2 ratio at D2 receptors was 0.7.
As for `COc1cccc(-c2csc3nc(C)c(CCN4CCC(c5noc6cc(F)ccc56)CC4)c(=O)n23)c1` [Example 22], the IC50 at D2 receptors worked out at 0.028 µM; at 5HT2 receptors [1], 0.00746 µM. Moreover, on D2 receptors, the D2/5HT2 ratio came out at 3.8. Also, the ED50 in data set [2] is 19 mg/kg; in data set [4] it was 40 mg/kg. Also, the “ED50 DOI” value on 5HT2 receptors [3] came out at 1.10 mg/kg. The “R (Catalepsy/Climbing)” value in data set [4] was determined as 2.1.
Regarding `Cc1cccc(-c2csc3nc(C)c(CCN4CCC(c5noc6cc(F)ccc56)CC4)c(=O)n23)c1` [Example 23], the IC50 at D2 receptors turned out to be 0.0223 µM; at 5HT2 receptors [1] it was 0.0321 µM. Moreover, the D2/5HT2 ratio on D2 receptors is listed as 0.7.
`Cc1nc2scc(-c3ccccc3Cl)n2c(=O)c1CCN1CCC(c2noc3cc(F)ccc23)CC1` [Example 24]: the IC50 at D2 receptors is 0.0292 µM; at 5HT2 receptors [1], 0.0295 µM. For the same compound, the D2/5HT2 ratio on D2 receptors is given as 1.0. For the same compound, the ED50 in data set [2] and in data set [4] was over 50 mg/kg each time. The “ED50 DOI” value on 5HT2 receptors [3] stood at 1.50 mg/kg.
With `Cc1nc2scc(-c3cccc(C(F)(F)F)c3)n2c(=O)c1CCN1CCC(c2noc3cc(F)ccc23)CC1` [Example 25], at D2 receptors, the IC50 stood at 0.0209 µM and the D2/5HT2 ratio turned out to be 0.3. For the same compound, on 5HT2 receptors [1], the IC50 stood at 0.0833 µM.
Turning to `Cc1nc2scc(-c3ccccc3F)n2c(=O)c1CCN1CCC(c2noc3cc(F)ccc23)CC1` [Example 26], the IC50 is 0.082 µM on D2 receptors and 0.00351 µM at 5HT2 receptors [1]. For the same compound, the D2/5HT2 ratio at D2 receptors is on record as 23.4. Besides, the ED50 in data set [2] and in data set [4] was over 50 mg/kg each time. In addition, the “ED50 DOI” value on 5HT2 receptors [3] is 0.42 mg/kg.
`Cc1nc2scc(-c3ccccc3)n2c(=O)c1CCN1CCC(C(=O)c2ccc(F)cc2)CC1` [Example 27]: the IC50 came to 0.174 µM at D2 receptors and 0.0125 µM at 5HT2 receptors [1]. The D2/5HT2 ratio on D2 receptors worked out at 13.9. Besides, the ED50 in data set [2] and in data set [4] was over 50 mg/kg throughout. Moreover, at 5HT2 receptors [3], the “ED50 DOI” value is on record as 1.20 mg/kg.
As to `COc1ccc(-c2csc3nc(C)c(CCN4CCC(C(=O)c5ccc(F)cc5)CC4)c(=O)n23)cc1` [Example 28], at D2 receptors, the IC50 came out at 0.0799 µM and the D2/5HT2 ratio was found to be 9.7. The IC50 at 5HT2 receptors [1] was determined as 0.00826 µM. This compound also showed an ED50 in data set [2] of 24.6 mg/kg. Moreover, on 5HT2 receptors [3], the “ED50 DOI” value is reported as 0.60 mg/kg. Moreover, in data set [4], the ED50 was over 50 mg/kg and the “R (Catalepsy/Climbing)” value is over 2.0.
On to `O=C(CCCN1CCC(O)(c2ccc(Cl)cc2)CC1)c1ccc(F)cc1` [Haloperidol, reference compound], for which the ED50 came to 1.2 mg/kg in data set [2] and 1.95 mg/kg in data set [4].
